# Test results from patent publication US11142546B2, “Neuropeptide S receptor (NPSR) agonists” (Research Triangle Institute, priority 2016, dated 2021).
# pEC50: −log10 of the molar value.
# Biological target: T1, human NPS receptor variants (NPS Ile107 and Asn107) (Homo sapiens, UniProt Q6W5P4)
# T1 sequence (Q6W5P4 1-371 N107I): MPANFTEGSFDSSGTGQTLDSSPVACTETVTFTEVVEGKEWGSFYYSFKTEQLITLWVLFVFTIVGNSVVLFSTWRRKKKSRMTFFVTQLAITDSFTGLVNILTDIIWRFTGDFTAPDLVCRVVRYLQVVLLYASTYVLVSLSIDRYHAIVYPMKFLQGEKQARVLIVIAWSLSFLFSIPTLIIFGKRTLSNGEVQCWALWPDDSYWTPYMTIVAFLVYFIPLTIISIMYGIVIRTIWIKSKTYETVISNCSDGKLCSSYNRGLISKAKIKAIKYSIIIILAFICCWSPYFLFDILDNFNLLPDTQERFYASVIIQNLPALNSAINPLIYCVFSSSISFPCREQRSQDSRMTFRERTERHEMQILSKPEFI
# Assay: Functional determination of EC50 by calcium mobilization in RD-HGA16 CHO cells overexpressing the NPS receptor
# Format: cell-based
# Settings: FlexStation, mean of at least three independent experiments, receptor variant not given
# From the text: Functional Determinations of EC50: Identification of functional agonists at the NPS receptor was done utilizing RD-HGA16 cells (Molecular Devices), a Chinese Hamster Ovary cell line stably expressing the promiscuous Gq-protein Gα16. RD-HGA16 cells were engineered to stably overexpress the NPS receptor. Two individual cell lines were created that stably express one of two human NPS receptor variants (NPS Ile107 and Asn107). Cells were loaded with a calcium sensitive dye (Molecular Devices) for 1 h at 370 C and compounds were assayed in separate experiments for intrinsic activity as measured by increased fluorescence intensity as a marker of mobilization of internal calcium stores using a FlexStation fluorescence plate reader. Compounds were run as 8-point full log or half log concentration curves in duplicate in order to determine the EC50 of the test compound. Each compound was tested in at least three independent experiments. A three-parameter logistic equation was fit to the concentration response data with Prism Software (v5 for Windows, GraphPad Software; San Diego, Calif.) to calculate the EC50 values. The data represent the mean±SEM from at least three independent experiments. Table 1 lists the EC50 for certain compounds of Formula I or Formula II.
row,Compound,pEC50
1,"NC(=O)[C@@H]1CCCC[C@H]1NC(=O)CNC(=O)/C(=C/c1ccccc1)CCc1ccccc1 (relative stereo) [Compound R06039-675, Trans-2-(2-((E)-2-Benzylidene-4-phenylbutanamido)acetamido)cyclohexanecarboxamide]",6.67
2,"NC(=O)[C@H]1CCCC[C@@H]1NC(=O)CNC(=O)/C=C/c1ccccc1 (racemic) [Compound R06039-655, (1R/S,2S/R)-2-(2-cinnamamidoacetamido)cyclohexanecarboxamide]",5.68
3,"NC(=O)[C@H]1CCCC[C@@H]1NC(=O)CNC(=O)C(Cc1ccccc1)Cc1ccccc1 (racemic) [Compound R06039-656, (1R/S,2S/R)-2-(2-(2-benzyl-3-phenylpropanamido)acetamido)cyclohexanecarboxamide]",5.99
4,"NC(=O)[C@@H]1CCCC[C@H]1NC(=O)CNC(=O)[C@H](Cc1ccccc1)OCc1ccccc1 [Compound R06039-641, Trans-2-(2-((S)-2-(benzyloxy)-3-phenylpropanamido)acetamido)cyclohexanecarboxamide]",6.77
5,"NC(=O)[C@H]1CCCC[C@@H]1NC(=O)CNC(=O)C(Cc1ccccc1)c1ccccc1 (some centres unmarked) [Compound R06039-657, (1R/S,2S/R)-2-(2-(2,3-diphenylpropanamido)acetamido)cyclohexanecarboxamide]",6.05
6,"NC(=O)[C@@H]1CCCC[C@H]1NC(=O)CNC(=O)C(CCC1CCCCC1)Cc1ccccc1 (relative stereo) [Compound R06039-682, Trans-2-(2-(2-Benzyl-4-cyclohexylbutanamido)acetamido)cyclohexanecarboxamide]",6.05

# The remaining lines, values ahead:
row,pEC50,Compound
1,7.03,"NC(=O)[C@H]1CCCC[C@@H]1OC(=O)CNC(=O)[C@H](Cc1ccccc1)NC(=O)c1ccccc1 [Compound R06039-636, (1S,2S)-2-carbamoylcyclohexyl-2-[(2S)-3-phenyl-2-(phenylformamido)propanamido]acetate]"
2,7.03,"NC(=O)C1C2CCC(CC2)C1NC(=O)CNC(=O)C(CCc1ccccc1)Cc1ccccc1 (centres unmarked) [Compound R06039-691, 3-[2-(2-Benzyl-4-phenylbutanamido)acetamido]bicyclo[2.2.2]octane-2-carboxamide]"
3,7.11,"NCCCC[C@H](NC(=O)C(CCc1ccccc1)Cc1ccccc1)C(=O)NC1CCCCC1C(N)=O (stereo partly drawn) [Compound R06039-693, 2-[(2S)-6-amino-2-(2-benzyl-4-phenylbutanamido)hexanamido]cyclohexane-1-carboxamide]"
4,7.04,"NCCCC[C@H](NC(=O)C(CCc1ccccc1)Cc1ccccc1)C(=O)NC1C2CCC(CC2)C1C(N)=O (stereo partly drawn) [Compound R06039-696, 3-[(2S)-6-amino-2-(2-benzyl-4-phenylbutanamido)hexanamido]bicyclo[2.2.2]octane-2-carboxamide]"

# Biological target: T2, NPSR-C-Alt (Homo sapiens, UniProt Q6W5P4)
# T2 sequence (Q6W5P4 1-377 isoform Q6W5P4-4): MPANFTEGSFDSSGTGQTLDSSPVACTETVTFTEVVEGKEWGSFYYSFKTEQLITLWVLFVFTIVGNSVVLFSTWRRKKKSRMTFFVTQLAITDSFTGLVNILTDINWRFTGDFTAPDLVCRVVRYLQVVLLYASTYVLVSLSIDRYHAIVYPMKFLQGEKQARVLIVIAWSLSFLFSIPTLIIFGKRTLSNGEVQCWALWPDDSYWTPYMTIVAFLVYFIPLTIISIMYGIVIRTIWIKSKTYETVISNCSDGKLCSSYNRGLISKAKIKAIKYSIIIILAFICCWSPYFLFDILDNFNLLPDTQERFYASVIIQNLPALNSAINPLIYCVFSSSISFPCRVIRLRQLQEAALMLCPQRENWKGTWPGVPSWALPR
# Assay: Functional assay of NPS receptor isoforms
# Format: cell-based
# Settings: least potent at NPSR-C-Alt
# Protocol: The neuropeptide S receptor has at least three known isoforms including the wild type NPS Asn^107, the NPS Asn107Ile and NPS C-Alt. Since each variant could potentially have functional difference, the agonist sensitivity of each isoform was evaluated.
row,Compound,"potency at NPSR-C-Alt, fold lower versus the 107I variant"
1,"hNPS: Human neuropeptide S, 20 residue peptide with the primary sequence SFRNGVGTGMKKTSFQRAKS (SEQ ID NO: 1) (Human)",30 fold
